pIC50: −log10 of the molar value. Counter-ions that a name gives are not always drawn.
Molecular target: T1, SPNS2 (Mus musculus, UniProt Q91VM4)
T1 construct: expressed in transfected cells; host or cells: HeLa or U937 cells
T1 sequence (Q91VM4 1-549): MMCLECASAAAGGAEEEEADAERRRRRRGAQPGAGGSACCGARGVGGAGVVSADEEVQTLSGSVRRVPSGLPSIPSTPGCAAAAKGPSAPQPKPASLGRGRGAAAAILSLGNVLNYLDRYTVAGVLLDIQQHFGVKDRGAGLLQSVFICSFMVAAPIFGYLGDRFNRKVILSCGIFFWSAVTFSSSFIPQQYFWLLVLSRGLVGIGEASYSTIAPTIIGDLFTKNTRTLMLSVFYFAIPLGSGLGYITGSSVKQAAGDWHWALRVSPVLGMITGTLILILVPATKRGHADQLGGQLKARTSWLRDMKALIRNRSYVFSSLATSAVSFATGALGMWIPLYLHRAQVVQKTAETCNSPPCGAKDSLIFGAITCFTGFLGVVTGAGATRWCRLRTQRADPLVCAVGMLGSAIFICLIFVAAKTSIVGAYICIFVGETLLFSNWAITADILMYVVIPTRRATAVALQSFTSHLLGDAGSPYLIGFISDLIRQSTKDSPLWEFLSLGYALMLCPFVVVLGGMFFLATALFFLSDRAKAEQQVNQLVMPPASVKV
Experiment: S1P transporter assay: S1P release from whole cells expressing SPNS2
Assay type: cell-based
Details: HeLa or U937 cells expressing mouse SPNS2; 18 hours; S1P in media measured by LC-MS; read-out: IC50 (in vitro inhibition against SPNS2)
Procedure: Transporter assays are vectorial and therefore require measurement of the transported analyte in different compartments. The S1P transporter SPNS2 only exports S1P, which obviates measuring uptake of S1P into transporter-expressing cells. Thus, transporter activity was determined by quantifying S1P release from whole cells expressing SPNS2. SPNS2 inhibitor potency was assessed using whole cell assays. HeLa or U937 cells expressing mouse SPNS2 were used to determine inhibitor potency (IC50). Cells were plated onto 12 well plates and assayed when the cell monolayers became confluent. Cell growth media (RPMI-1640 containing 10% fetal bovine serum) was replaced with 2 mL of serum-free media (RPMI-1640) containing fatty acid free bovine serum albumin (BSA) (0.2% w/v) and supplemented with 4-deoxypyridoxine (DOP) (1 mM), NaF (2 mM), Na3VO4 (0.2 mM) to inhibit S1P degradation. Test articles (1×10-9-1×10^-4 M) were assayed in duplicate or triplicate. After 18 hours, media was collected, an internal recovery standard (0.005 mL of 5×10^-7 M deuterated (d7) S1P in methanol) was added, the BSA was precipitated with trichloroacetic acid and the bound S1P extracted with methanol. S1P and S1P-d7 were measured by liquid chromatography mass spectrometry. Inhibitor potency at the human SPNS2 ortholog was determined by an analogous assay using U-937 cells, which endogenously express human SPNS2.

| pIC50 | Compound |
| --- | --- |
| < 5.70 | CCCCCCCCCCc1ccc(-c2noc(C(Cl)CCN)n2)cc1 (racemic) [Compound 5k, (±)-3-chloro-3-(3-(4-decylphenyl)-1,2,4-oxadiazol-5-yl)propan-1-amine hydrochloride] |
| < 5.70 | CCCCCCCCCCc1ccc(-c2noc([C@H]3CCC[C@@H](N)C3)n2)cc1 (racemic) [Compound 5p, (f)-cis-3-(3-(4-decylphenyl)-1,2,4-oxadiazol-5-yl)cyclohexan-1-amine hydrochloride] |
| < 5.70 | CCCCCCCCCCc1ccc(-c2noc([C@@H]3CCC[C@@H](N)C3)n2)cc1 (racemic) [Compound 5q, (±)-trans-3-(3-(4-decylphenyl)-1,2,4-oxadiazol-5-yl)cyclohexan-1-amine hydrochloride] |
| < 5.70 | CCCCCCCCCCc1ccc(-c2noc(C3CCNCC3)n2)cc1 [Compound 5a, 3-(4-decylphenyl)-5-(piperidin-4-yl)-1,2,4-oxadiazole 2,2,2-trifluoroacetate] |
| ≥ 5.70 | CCCCCCCCCCc1ccc(-c2noc(CCN)n2)cc1 [Compound 5b, 2-(3-(4-decylphenyl)-1,2,4-oxadiazol-5-yl)ethan-1-amine 2,2,2-trifluoroacetate] |
| < 5.70 | CCCCCCCCCCc1ccc(-c2noc(C[C@H](C)N)n2)cc1 [Compound 5c, (S)-1-(3-(4-decylphenyl)-1,2,4-oxadiazol-5-yl)propan-2-amine 2,2,2-trifluoroacetate] |
| < 5.70 | CCCCCCCCCCc1ccc(-c2noc([C@@H]3CC[C@H](N)C3)n2)cc1 [Compound 5d, (1S,3R)-3-(3-(4-decylphenyl)-1,2,4-oxadiazol-5-yl)cyclopentan-1-amine hydrochloride] |
| ≥ 5.70 | CCCCCCCCCCc1ccc(-c2noc(CCCN)n2)cc1 [Compound 5e, 3-(3-(4-decylphenyl)-1,2,4-oxadiazol-5-yl)propan-1-amine 2,2,2-trifluoroacetate] |
| ≥ 5.70 | CCCCCCCCCCc1ccc(-c2noc(CN)n2)cc1 [Compound 5f, (3-(4-decylphenyl)-1,2,4-oxadiazol-5-yl)methanamine 2,2,2-trifluoroacetate] |
| < 5.70 | CCCCCCCCCCc1ccc(-c2noc(CC(O)CN)n2)cc1 (centres unmarked) [Compound 5g, 1-amino-3-(3-(4-decylphenyl)-1,2,4-oxadiazol-5-yl)propan-2-ol hydrochloride] |
| ≥ 5.70 | CCCCCCCCCCc1ccc(-c2noc(CN3CCNCC3)n2)cc1 [Compound 5h, 3-(4-decylphenyl)-5-(piperazin-1-ylmethyl)-1,2,4-oxadiazole 2,2,2-trifluoroacetate] |
| < 5.70 | NCCCc1nc(-c2ccc(OCc3ccccc3)cc2)no1 [Compound 5i, 3-(3-(4-(benzyloxy)phenyl)-1,2,4-oxadiazol-5-yl)propan-1-amine hydrochloride] |
| ≥ 5.70 | CCCCCCCCCCc1cccc(-c2noc(CCCN)n2)c1 [Compound 5j, 3-(3-(3-decylphenyl)-1,2,4-oxadiazol-5-yl)propan-1-amine hydrochloride] |
| < 5.70 | CCCCCCCCCCc1ccc(-c2noc(CCCN(C)C)n2)cc1 [Compound 5l, 3-(3-(4-decylphenyl)-1,2,4-oxadiazol-5-yl)-N,N-dimethylpropan-1-amine hydrochloride] |
| < 5.70 | CCCCCCCCCCc1ccc(-c2noc(CCCNC)n2)cc1 [Compound 5m, 3-(3-(4-decylphenyl)-1,2,4-oxadiazol-5-yl)-N-methylpropan-1-amine hydrochloride] |
| < 5.70 | CCCCCCCCCCc1ccc(-c2noc(CC(CN)OC(C)=O)n2)cc1 (centres unmarked) [Compound 5n, 1-amino-3-(3-(4-decylphenyl)-1,2,4-oxadiazol-5-yl)propan-2-yl acetate hydrochloride] |

| pIC50 | Compound |
| --- | --- |
| < 5.70 | CCCCCCCCCc1ccc(Cc2noc(CCCN)n2)cc1 [Compound 5r, 3-(3-(4-nonylbenzyl)-1,2,4-oxadiazol-5-yl)propan-1-amine hydrochloride] |
| < 5.70 | CCCCCCCCc1ccc(CCc2noc(CCCN)n2)cc1 [Compound 5s, 3-(3-(4-octylphenethyl)-1,2,4-oxadiazol-5-yl)propan-1-amine hydrochloride] |
| < 5.70 | CCCCCCCCCOc1ccc(-c2noc(CCCN)n2)cc1 [Compound 5t, 3-(3-(4-(nonyloxy)phenyl)-1,2,4-oxadiazol-5-yl)propan-1-amine hydrochloride] |
| < 5.70 | CCCCCCCCCOc1ccc(-c2noc(CCCN)n2)cc1C(F)(F)F [Compound 5u, 3-(3-(4-(nonyloxy)-3-(trifluoromethyl)phenyl)-1,2,4-oxadiazol-5-yl)propan-1-amine hydrochloride] |
| ≥ 5.70 | CCCCCCCCCOc1ccc(-c2noc(CCCN)n2)cc1F [Compound 5v, 3-(3-(3-fluoro-4-(nonyloxy)phenyl)-1,2,4-oxadiazol-5-yl)propan-1-amine hydrochloride] |
| ≥ 5.70 | CCCCCCCOc1ccc2cc(-c3noc(CCCN)n3)ccc2c1 [Compound 5w, 3-(3-(6-(heptyloxy)naphthalen-2-yl)-1,2,4-oxadiazol-5-yl)propan-1-amine hydrochloride] |
| < 5.70 | CCCCCCCOc1ccc2cc(-c3noc([C@@H]4CCNC4)n3)ccc2c1 [Compound 5x, (R)-3-(6-(heptyloxy)naphthalen-2-yl)-5-(pyrrolidin-3-yl)-1,2,4-oxadiazole hydrochloride] |
| < 5.70 | CCCCCCCCCCc1ccc(-c2noc(CC[C@@H](N)C(=O)O)n2)cc1 [Compound 5y, (R)-2-amino-4-(3-(4-decylphenyl)-1,2,4-oxadiazol-5-yl)butanoic acid hydrochloride] |
| < 5.70 | CCCCCCCCCCc1ccc(-c2noc(CC(O)CN3CCCCC3)n2)cc1 (centres unmarked) [Compound 6a, 1-(3-(4-decylphenyl)-1,2,4-oxadiazol-5-yl)-3-(piperidin-1-yl)propan-2-ol hydrochloride] |
| < 5.70 | CCCCCCCCCCc1ccc(-c2noc(CC(O)CN3CCCC3)n2)cc1 (centres unmarked) [Compound 6b, 1-(3-(4-decylphenyl)-1,2,4-oxadiazol-5-yl)-3-(pyrrolidin-1-yl)propan-2-ol hydrochloride] |
| < 5.70 | CCCCCCCCCCc1ccc(-c2noc(CC(O)CN3CCOCC3)n2)cc1 (centres unmarked) [Compound 6c, 1-(3-(4-decylphenyl)-1,2,4-oxadiazol-5-yl)-3-morpholinopropan-2-ol hydrochloride] |
| < 5.70 | CCCCCCCCCCc1ccc(-c2noc(CCCN3CCCC3)n2)cc1 [Compound 6d, 3-(4-decylphenyl)-5-(3-(pyrrolidin-1-yl)propyl)-1,2,4-oxadiazole hydrochloride] |
| < 5.70 | CCCCCCCCCCc1ccc(-c2noc(CCCN3CCCCC3)n2)cc1 [Compound 6e, 3-(4-decylphenyl)-5-(3-(piperidin-1-yl)propyl)-1,2,4-oxadiazole hydrochloride] |
| < 5.70 | CCCCCCCCCCc1ccc(-c2noc(CCCN3CCOCC3)n2)cc1 [Compound 6f, 4-(3-(3-(4-decylphenyl)-1,2,4-oxadiazol-5-yl)propyl)morpholine hydrochloride] |
| < 5.70 | CCCCCCCCCCc1ccc(-c2noc(CC(O)CNCC)n2)cc1 (centres unmarked) [Compound 7a, 1-(3-(4-decylphenyl)-1,2,4-oxadiazol-5-yl)-3-(ethylamino)propan-2-ol hydrochloride] |
| < 5.70 | CCCCCCCCCCc1ccc(-c2noc(CC(O)CN(C)C)n2)cc1 (centres unmarked) [Compound 7b, 1-(3-(4-decylphenyl)-1,2,4-oxadiazol-5-yl)-3-(dimethylamino)propan-2-ol hydrochloride] |
